Test results reported in the NIST ThermoML archive (doi:10.1016/j.jct.2015.01.001).
Where “and” joins values, the source holds several entries; their conditions need not be identical. Equal entries are not always repeated.

Tests used:
[1] = xn = mol fraction of the nth substance listed; details: Liquid; for viscosity: Falling or rolling sphere viscometry; for mass density: Vibrating tube method
[2] = Liquid; for vapor or sublimation pressure: Closed cell (Static) method; for viscosity: Falling or rolling sphere viscometry; for mass density: Vibrating tube method

O=C=O [carbon dioxide] + CO
[1]
Details	mass density [kg/m3]	viscosity [mPa·s]
298.15 K, 467.6 kPa, x1 = 0.037	792.7	0.523
298.15 K, 1827.6 kPa, x1 = 0.155	811.4	0.45
298.15 K, 2059.2 kPa, x1 = 0.176	814.6	0.436
298.15 K, 2411.7 kPa, x1 = 0.207	819.5	0.418
298.15 K, 2609.8 kPa, x1 = 0.225	822.2	0.407
298.15 K, 3070.8 kPa, x1 = 0.268	828.6	0.383
303.15 K, 514.4 kPa, x1 = 0.034	787	0.497
303.15 K, 1357.8 kPa, x1 = 0.099	796.3	0.459
303.15 K, 2202.1 kPa, x1 = 0.164	805.7	0.421
303.15 K, 2582.4 kPa, x1 = 0.194	809.9	0.403
303.15 K, 2803.7 kPa, x1 = 0.212	812.4	0.392
303.15 K, 3272.7 kPa, x1 = 0.249	817.7	0.37
308.15 K, 543.8 kPa, x1 = 0.032	783.2	0.467
308.15 K, 1454.6 kPa, x1 = 0.094	791.6	0.434
308.15 K, 2129.6 kPa, x1 = 0.14	797.9	0.408
308.15 K, 2391.6 kPa, x1 = 0.158	800.3	0.398
308.15 K, 2760.3 kPa, x1 = 0.184	803.7	0.385
308.15 K, 3001.7 kPa, x1 = 0.201	806	0.375
308.15 K, 3529.4 kPa, x1 = 0.238	810.9	0.356
313.15 K, 629.5 kPa, x1 = 0.031	777.5	0.443
313.15 K, 1587.2 kPa, x1 = 0.091	787.1	0.41
313.15 K, 2265.6 kPa, x1 = 0.133	793.6	0.39
313.15 K, 2523.6 kPa, x1 = 0.149	796	0.378
313.15 K, 2943.3 kPa, x1 = 0.175	800.1	0.368
313.15 K, 3205.9 kPa, x1 = 0.191	802.6	0.356
313.15 K, 3774.9 kPa, x1 = 0.227	808	0.337

CO [methanol]
[2]
Details	mass density [kg/m3]	vapor or sublimation pressure [kPa]	viscosity [mPa·s]
298.15 K	786.7	17	0.544
303.15 K	782	21.9	0.512
308.15 K	777.3	27.9	0.486
313.15 K	772.5	35.6	0.46

CO [methanol] + O=C=O
[1], x2 = 0
Details	mass density [kg/m3]	viscosity [mPa·s]
298.15 K, 17 kPa	786.7	0.544
303.15 K, 21.9 kPa	782	0.512
308.15 K, 27.9 kPa	777.3	0.486
313.15 K, 35.6 kPa	772.5	0.46

O=S1(=O)CCCC1 [sulfolane]
[2]
Details	mass density [kg/m3]	viscosity
303.15 K	1262	10.3 mPa·s and 10.2 mPa·s
313.15 K	1253	8.01 mPa·s
323.15 K	1244	6.32 mPa·s
333.15 K	1235	5.16 mPa·s
343.15 K	1226	4.22 mPa·s
353.15 K	1218	3.5 mPa·s
363.15 K	1209	2.92 mPa·s
